Key:
[1] = tested on: MPTP-lesioned macaques; test: On-time (time without bradykinesia) in MPTP-lesioned macaques after L-DOPA challenge; assay type: in vivo, Macaca fascicularis; settings: both groups; L-DOPA challenge 6-40 mg/kg p.o.
Method: Analysis was performed using a two-way ANOVA with group and L-DOPA dose as factors.

[2] = tested on: MPTP-lesioned macaques; test: L-DOPA induced dyskinesia (LID) in MPTP-lesioned macaques, monkey dyskinesia rating scale; assay type: in vivo, Macaca fascicularis; settings: group 1 (L-DOPA+vehicle); challenge with L-DOPA 12, 20, 30 or 40 mg/kg p.o.
Method: Ten female cynomolgus monkeys (macaques) (Macaca fascicularis, 3.0-4.5 kg, 4-6 years old) were acclimatised to the experimental setting and procedures for 3 months and baseline behaviour was assessed in all animals. The macaques received MPTP (0.2 mg/kg/day, s.c.) until moderate-marked, stable, parkinsonian symptoms developed.
Following stabilisation of parkinsonian disability, the macaques were administered L-DOPA (Madopar, 20 mg/kg b.i.d., p.o.) for 19 weeks before being administered L-DOPA+vehicle (hydroxypropylmethylcellulose, HPMC, 0.5% w/v containing Tween 80, 0.2% v/v, group 1, n=5) or L-DOPA+smilagenin (20 mg/kg/day, p.o., group 2, n=5) for a further 18 weeks. Smilagenin was then washed out for 10 weeks and all the macaques received only L-DOPA twice daily over this 10 week period.
Following the 10 week washout, the macaques were challenged with L-DOPA (6, 12, 20, 30 or 40 mg/kg, p.o.) or vehicle and the level of dyskinesia over the subsequent 6 h period was assessed by a neurologist blinded to treatment using a monkey dyskinesia rating scale. […] Each macaque received a challenge once every 3 days and received every challenge (vehicle and L-DOPA, 6, 12, 20, 30 or 40 mg/kg) in a randomised order over the course of the experiment. On the days between challenges, the macaques received L-DOPA (20 mg/kg, b.i.d., p.o.) as normal.
The MPTP-lesioned and L-DOPA treated macaques used in this experiment provide an accepted model for L-DOPA-induced dyskinesia.

N[C@@H](Cc1ccc(O)c(O)c1)C(=O)O [L-DOPA, L-3,4-dihydroxyphenylalanine]
Effect of L-DOPA on amount of on-time [1]: increased the amount of on-time | Dyskinesia following challenge with L-DOPA [2]: dose-dependent dyskinesia up to the 30 mg/kg dose
